One may read the melting point as the temperature of the solid-liquid transition.

In turn, `Cc1ccc(C(=S)c2cccc3c2NC(=O)C3)cc1` had a melting point of 167 to 169 °C.
As for `CCOC(=O)CN(C(=O)C(F)(F)F)C(NC(C)C)P(=O)(O)OSCC` (configuration not stated), the figure is 85 to 87 °C.
The value for `COC(=O)Cn1c(C)ccc(NC(=O)OCc2ccccc2)c1=O` was 115 to 116 °C; that for `Cc1nc2sccn2c(=O)c1CCN1CCC(NC(=O)c2cc(Cl)c(N)c3c2OCCC3)CC1` was 212 °C; that for `CCS(=O)(=O)Nc1cccc2c1N=C(c1ccc(-n3c(C)nc4cnccc43)cc1)CC(=O)N2` was 258 to 260 °C.
As for `CN1CCC(OC(c2cccc(SCCNC(=N)NC#N)c2)c2nc3ccccc3[nH]2)CC1` (configuration not stated), the figure is 65 °C.
`CCc1cccc(C)c1CNc1cc(Br)cc2c1nc(COC)n2C` showed a melting point of 110 to 112 °C.
The value for `O=C(O)c1ccc(C2OC2C(=O)c2ccccc2)cc1` (configuration not stated) was 170 to 172 °C; that for `CC1(C)Oc2ccc(C#Cc3ccccc3)cc2[C@@H](N)[C@@H]1O` (relative stereo) was 162 to 164 °C; that for `COc1ccc(COc2ccc(C(=O)Nc3ccc4cc(CN5CCCC5)cnc4c3C)cc2)cc1` was 192 to 193 °C.
Molecule `CCCOc1ccc(C2CCCN3CCS(=O)(=O)N=C23)cc1` (configuration not stated) came in with a melting point of 169 to 170 °C.
In the case of `NS(=O)(=O)c1cc2c(s1)CN(CCO)CC2`, the melting point lay within 184 to 186 °C.
In turn, `COc1ccc(C(=O)CCCCCl)cc1S(N)(=O)=O` showed a melting point of 135 to 136 °C.
The value for `O=C(O)c1ccc(C2=NCCS2)nc1` was 234 to 235 °C; that for `C1=C(/C=C/c2ccccc2)CCN(Cc2c[nH]c3ccccc23)C1` was 191 to 193 °C; that for `CCOC(=O)C(=CNc1ccc(F)cc1)C(=O)c1ccc(Cl)cc1Cl` was 108 to 111 °C.
`Cc1c(C)c(NC(=O)CC(C)(C)C)c2c(c1C)C(O)(c1ccc(C(C)C)cc1)C(C)(C)O2` (configuration not stated): the melting point fell in the range of 178 to 179 °C.
The value for `O=C1NC(=O)C2(N1)C(=O)N(Cc1ccc(Cl)c(Cl)c1)c1ccc(Cl)cc12` (configuration not stated) was 257 to 259 °C.
The value for `CC(=O)N1CCC(C)(C)c2c(C)ccc(CCN3CCN(c4nsc5ccccc45)CC3)c21` was 132 °C; that for `CC1=Cc2cc3c(cc2C(c2ccc([N+](=O)[O-])c(C)c2)=NN1C(=O)NC1CC1)OCO3` was 198 to 202 °C; that for `O=c1[nH]c(-c2ccc(CCN3CCN(c4cccc5ccccc45)CC3)cc2)cs1` was 307 to 309 °C.
As for `CC(=O)c1nc2cccc(OC(F)(F)F)c2cc1OCc1ccccc1`, the figure is 90 to 92 °C.
With `O=S(=O)(NCCn1ccnc1)c1ccc(Br)cc1`, the melting point is 165 to 167 °C.
As for `ON=C1c2ccccc2CSc2ccccc21`, the figure is 241 to 243 °C.
The value for `CC(C)Cn1c(=O)n(C)c(=O)c2cc(Cc3ccccc3)sc21` was 72 to 73 °C; that for `CCCC1=C(C#N)C(c2ccccc2Cl)c2c(n[nH]c2-c2ccc3ccccc3c2)N1` (configuration not stated) was above 270 °C; that for `CCOC(=O)CCNC(=O)CN1CC(=O)N(C)c2ccc(NC(=O)NCc3ccccc3)cc2C1=O` was 100 to 102 °C.
Molecule `O=[N+]([O-])c1cnc(Sc2nccnc2Cl)s1` came in with a melting point of 139 to 141 °C.
In the case of `CC1c2ccccc2-c2ccccc2N1S(=O)(=O)c1ccc(O)c(O)c1` (configuration not stated), the melting point lay within 163 to 165 °C.
In the case of `OC1CC2(CCNC2)c2ccc(Cl)c(Cl)c21` (configuration not stated), the melting point was in the range of 167 to 170 °C.
As for `CCN1C(=O)CN=C(c2ccccc2F)c2cc(C(C)O)ccc21` (configuration not stated), the figure is 48 to 50 °C.
As for `CC(=O)c1c2c(cc3c1CCC3)CCC2`, the figure is 69.1 to 76.1 °C.
`CN[C@@H]1CN(c2nc3c(cc2F)c(=O)c(C(=O)O)cn3C(C)(C)C)[C@H]1C` (relative stereo) gave a melting point of 185 to 187 °C.
The value for `CCCn1c(=O)c2[nH]c(C3CCOC3)nc2n(CCC)c1=O` (configuration not stated) was 177 to 178 °C; that for `NNC1=Nc2ccc(C(F)(F)F)cc2C(c2ccccc2)=NC1` was 127 °C.
As for `Cc1ccc(CS(=O)c2nc3cc4c(cc3[nH]2)OCO4)nc1` (configuration not stated), the figure is 185 to 187 °C; as for `CCOC(=O)CS(=O)CCNC(=O)OCC` (configuration not stated), 73.8 to 77 °C.
As for `CC(=O)[NH+]([O-])C[C@@H]1CN(c2cc(F)c(N3CCN(C(=O)CO)CC3)c(F)c2)C(=O)O1` (some centres not stated), the figure is 100 to 105 °C; as for `COc1cc2c(c(OC)c1OC)CC(N1CCC(n3c(=O)[nH]c4ccccc43)CC1)C2=O` (configuration not stated), 197 to 199 °C; as for `Clc1ccc(Oc2cncc(Cl)n2)cc1`, 92 to 93 °C.
`O=C(c1cccnc1)N1N=CCC1c1ccco1` (configuration not stated) yielded a melting point of 91 to 93 °C.
Molecule `CCN(CC)CC1CCCCN1CCNC(=O)N1c2cc(Cl)ccc2C(=O)Nc2cccnc21` (configuration not stated) displayed a melting point of 169 to 170 °C.
The value for `O=[N+]([O-])c1ccc(C2OCc3ccc(CO)cc3CO2)cc1` (configuration not stated) was 146 °C.
Turning to `OC(c1ccccc1)(c1ccc(Cl)cc1)c1nccn1Cc1ccccc1` (configuration not stated), the melting point lay within 174 to 175 °C.
The value for `O=[N+]([O-])c1cc(F)ccc1N1CCNCC1` was 85 to 87 °C.
Molecule `Clc1ccc2c(c1)Cc1ccc(-c3nnn[nH]3)cc1S2` gave a melting point of 257 °C.
The value for `N#Cc1c(C(=Nc2ccccc2)c2ccccc2)n(O)c2ccccc12` was 188 to 190 °C; that for `O=C(O)c1cc(COc2ccccc2)cc(Cn2cc(C3c4ccccc4C=Cc4ccccc43)c(=S)[nH]c2=O)c1` was 160 to 165 °C.
The value for `CCCCOC(=O)Nc1cccc(C(C)=O)c1` was 59 to 60 °C; that for `CCOC(=O)c1c(Cc2cc3c(cc2Cl)OCO3)c(-c2ccccc2)nn1CC1CCCCC1` was 130 °C; that for `CCOC(=O)c1c(C)cc2c(c1C)c(=O)n(-c1ccccc1C(F)(F)F)c(=O)n2CCN1CCN(C(=O)C=Cc2ccccc2)CC1` was 119 to 120 °C.
Turning to `CCCN1CCCC1Cc1cccc(NC(N)=O)c1` (configuration not stated), the melting point fell in the range of 101 to 104 °C.
The value for `CCCN1C(=O)N2C[C@@H](Cc3ccccc3)N=C2c2c1nc(CCl)n2Cc1ccccc1` was 112 to 113 °C; that for `CC(C)(C)C(=O)C=Cc1ccc(C2OCCO2)cc1` was 79 to 81 °C.
The value for `O=C(c1ccccc1)c1ccc(CP(=O)(O)O)cc1` was 172 to 175 °C; that for `O=C(O)c1cnc2c3ccccc3ncn2c1=O` was above 270 °C.
The value for `CN1CCC(C2(O)c3ccc(Cl)cc3Sc3ccc(F)cc32)CC1` (configuration not stated) was 133 to 142 °C; that for `CC1C(c2ncc(Cl)cc2F)=NN(C)CS1=S` (configuration not stated) was 107 to 112 °C.
Molecule `NCc1sc(C(c2ccc(Cl)cc2)c2c(Cl)cc(-n3ncc(=O)[nH]c3=O)cc2Cl)nc1-c1ccccc1` (configuration not stated) returned a melting point of 170 °C.
The value for `CC(=O)OCC(=O)C1(OC(C)=O)C(C)CC2C3CCC4=CC(=O)C=CC4(C)C3(F)C=CC21C` (configuration not stated) was 135 to 136 °C; that for `ClC1=Nc2ccccc2Oc2c1csc2Cl` was 144 to 145 °C.
The value for `COc1cc2c(-c3cc4cc(F)cnc4[nH]3)cn(CCN3CCOCC3)c2cc1OC` was 205 to 210 °C; that for `O=C(O)CCCSc1ccccc1O` was 77 to 78 °C.
The value for `Cc1ccc(Cc2cnc(NCCCN(C)c3ncccc3C)[nH]c2=O)cn1` was 83 to 85 °C.
As to `O=C(O)CCC(=O)Nc1ccc2[nH]c(=O)c3ccccc3c2c1`, the melting point was 224 to 228 °C.
The value for `COc1nc(C)cnc1NS(=O)(=O)c1ccccc1-c1ccc(OC(C)C(=O)O)cc1` (configuration not stated) was 188 to 190 °C; that for `CCOC(=O)C1=C(C)N2CCNC2=C(C(=O)OCC)C1c1cccc(C(=O)OCC)c1` (configuration not stated) was 149 °C; that for `Fc1ccc(N2CCC(N3CCN(c4cccc5cccnc45)CC3)CC2)c2ncccc12` was 224 °C.
The value for `C=C(C)C(=O)N(NC(=O)c1ccccc1)C(C)(C)C` was 148 to 152 °C; that for `N#CCOc1ccc2cc(-c3ccc(-c4ccccc4)[nH]3)ccc2c1` was 142 °C.
As for `COc1ccc(C2(C)CCc3cc(OC)ccc3C2(O)C#CCCCCOC2CCCCO2)cc1` (configuration not stated), the figure is 80 to 82 °C; as for `CC(C)N(C(=O)n1nc(Oc2ccc(C(F)(F)F)cc2[N+](=O)[O-])cc1C(F)(F)F)C(C)C`, 118 to 120 °C; as for `CCOc1cc2ncc(C#N)c(NCc3ccc(OC)c(OC)c3)c2cc1OCC`, 200 to 204 °C.
Molecule `c1ccc(-c2nc(-c3ccc4c(c3)OCO4)sc2-c2ccccc2)cc1` registered a melting point of 121 to 124 °C.
With `Cc1ccccc1-c1cccc(/C=C/C(=O)Nc2ccc(CN3CCCCC3)cc2)c1`, the melting point was in the range of 185 to 187 °C.
The value for `O=C(O)c1ccc2c(c1)COC2c1ccc(F)cc1` (configuration not stated) was 187 to 190 °C.
`COc1ccc(CNC(=O)C(=O)NCCc2ccccn2)cc1` had a melting point of 156 to 158 °C.
`CN1CCC(O)(c2cc(F)cc(Cl)c2)C1` (configuration not stated) yielded a melting point of 117 to 118 °C.
The value for `O=C(O)COc1cccc(C=Cc2nc(-c3ccccc3)c(-c3ccccc3)o2)c1` was 213 to 215 °C; that for `CCCOc1ccc(CCNC(=O)C(F)(F)F)cc1S(=O)(=O)N=CN(C)C` was 142 °C; that for `CCN1C(=O)C(C)(C)C(=O)N(C)c2cc(CN(CCn3ccc4oc(C)cc4c3=O)Cc3ccccc3CO)ccc21` was 159 to 161 °C.
The value for `CC(C)(C)NC(=O)CN1C(=O)C(N)CC(c2ccccc2F)c2ccccc21` (configuration not stated) was 190 to 195 °C.
As for `COc1ccc2c(c1)CCC1C2CCC2(C)C(=NN(C)C)CCC12` (configuration not stated), the figure is 98 to 100 °C; as for `COC(=O)C(=Cc1ccc2c(c1)OCO2)C(=O)c1cccc(OCc2ccccc2)c1`, 116 to 118 °C; as for `COc1cc(NC(=O)C#Cc2ccc(C(F)(F)F)cc2Cl)ccc1OCCN1CC(C)CC(C)C1` (configuration not stated), 196 to 201 °C.
The molecule `O=C(O)CN1C(=O)[C@@H](N[C@@H](CCC2CCCCC2)C(=O)O)CSc2ccccc21` registered a melting point of 207 to 210 °C.
The value for `C=CC(=O)OCc1cn(-c2ccccc2)nn1` was 55 to 56 °C.
